Measured values taken from patent US7695930B2, “Method for the detection, identification and/or quantification of microoganisms with peptidase activity using phenoxazinone derivatives as enzyme substrates” (Biomerieux, priority 2003, dated 2010).

Columns and labels:
Assay in all cases: Alanyl-peptidase detection on agar medium (Example 13)
Assay type in all cases: cell-based
Settings in all cases: 25 mg/l
Staphylococcus aureus = system: Staphylococcus aureus
Protocol: (§1) The detection media were prepared by mixing 3.6 g of biogelytone (bioMérieux), 2.16 g of meat extract (bioMérieux), 1.26 g of malt extract (bioMérieux), 5.76 g of NaCl (Merck) and 10.8 g of agar (bioMérieux).
(§2) 720 ml of osmosed water were added to the powder, and the mixture was then melted in a waterbath at […]. The product was separated into two flasks, each of 360 ml. Autoclaving was carried out at 121° C. for 15 min and the product was cooled to […]. in a waterbath.
(§3) L-Alanyl-7-amino-4-methylcoumarin (Ala-AMC, Bachem) was then added to the first flask as a control, at the final concentration of 50 mg/l, and L-alanyl-9-aminobenzo[a]phenoxazin-5-one (Ala-ABP, substrate of the invention obtained in Example 2, in which the amino acid is L-alanine), was then added to the second flask at the final concentration of 25 mg/l.
(§4) The size of the colonies, their coloration and also the intensity of this coloration were noted.

Saccharomyces cerevisiae = system: Saccharomyces cerevisiae
Protocol: as §1, §2, §3, §4

Klebsiella pneumoniae = system: Klebsiella pneumoniae
Protocol: as §1, §2, §3, §4

Pseudomonas aeruginosa = system: Pseudomonas aeruginosa; as to color of the colony: key: B corresponds to fluorescent blue; R corresponds to pink
Protocol: as §1, §2, §3, §4

Edwardsiella tarda = system: Edwardsiella tarda
Protocol: as §1, §2, §3, §4

Proteus mirabilis = system: Proteus mirabilis
Protocol: as §1, §2, §3, §4

Candida krusei = system: Candida krusei
Protocol: as §1, §2, §3, §4

Serratia marcescens = system: Serratia marcescens
Protocol: as §1, §2, §3, §4

Listeria innocua = system: Listeria innocua
Protocol: as §1, §2, §3, §4

Hafnia alvei = system: Hafnia alvei
Protocol: as §1, §2, §3, §4

[1] = system: Staphylococcus epidermidis
Protocol: as §1, §2, §3, §4

Serratia liquefaciens = system: Serratia liquefaciens
Protocol: as §1, §2, §3, §4

Streptococcus agalactiae = system: Streptococcus agalactiae
Protocol: as §1, §2, §3, §4

Bacillus subtilis = system: Bacillus subtilis
Protocol: as §1, §2, §3, §4

Candida albicans = system: Candida albicans
Protocol: as §1, §2, §3, §4

[2] = system: Corynebacterium Pseudodiphteriticum
Protocol: as §1, §2, §3, §4

Enterococcus faecalis = system: Enterococcus faecalis
Protocol: as §1, §2, §3, §4

Enterobacter cloacae = system: Enterobacter cloacae
Protocol: as §1, §2, §3, §4

Escherichia coli = system: Escherichia coli
Protocol: as §1, §2, §3, §4

Candida glabrata = system: Candida glabrata
Protocol: as §1, §2, §3, §4

Enterococcus faecium = system: Enterococcus faecium
Protocol: as §1, §2, §3, §4

Salmonella typhimurium = system: Salmonella typhimurium
Protocol: as §1, §2, §3, §4

Acinetobacter baumanii = system: Acinetobacter baumanii
Protocol: as §1, §2, §3, §4

[3] = system: Staphylococcus saprophyticus
Protocol: as §1, §2, §3, §4

Streptococcus pyogenes = system: Streptococcus pyogenes
Protocol: as §1, §2, §3, §4

Question: “L-alanyl-9-aminobenzo[a]phenoxazin-5-one [Ala-ABP]” was tested. Which growth diameter (Staphylococcus aureus; 24 h) did it give?
Answer: 0.1 mm

Question: And the growth diameter (Staphylococcus aureus; 48 h)?
Answer: 0.3 mm

Question: And the growth diameter (Saccharomyces cerevisiae; 24 h)?
Answer: 0 mm

Question: What about the growth diameter (Saccharomyces cerevisiae; 48 h) of the same substance?
Answer: 0.2 mm

Question: What about the “color of the colony” value (Klebsiella pneumoniae; 24 h) of the same substance?
Answer: R

Question: What about the growth diameter (Klebsiella pneumoniae; 24 h) of the same substance?
Answer: 1 mm

Question: And the “intensity of coloration, scale 0 to 4” value (Klebsiella pneumoniae; 24 h)?
Answer: 3

Question: What about the “color of the colony” value (Klebsiella pneumoniae; 48 h) of the same substance?
Answer: R

Question: What about the growth diameter (Klebsiella pneumoniae; 48 h) of the same substance?
Answer: 1.5 mm

Question: What about the “intensity of coloration, scale 0 to 4” value (Klebsiella pneumoniae; 48 h) of the same substance?
Answer: 3

Question: What about the “color of the colony” value (Pseudomonas aeruginosa; 24 h) of the same substance?
Answer: R

Question: And the growth diameter (Pseudomonas aeruginosa; 24 h)?
Answer: 0.3 mm

Question: What about the “intensity of coloration, scale 0 to 4” value (Pseudomonas aeruginosa; 24 h) of the same substance?
Answer: 1.7

Question: And the “color of the colony” value (Pseudomonas aeruginosa; 48 h)?
Answer: R

Question: And the growth diameter (Pseudomonas aeruginosa; 48 h)?
Answer: 0.5 mm

Question: What about the “intensity of coloration, scale 0 to 4” value (Pseudomonas aeruginosa; 48 h) of the same substance?
Answer: 3

Question: What about the “color of the colony” value (Edwardsiella tarda; 24 h) of the same substance?
Answer: R

Question: What about the growth diameter (Edwardsiella tarda; 24 h) of the same substance?
Answer: 0.5 mm

Question: What about the “intensity of coloration, scale 0 to 4” value (Edwardsiella tarda; 24 h) of the same substance?
Answer: 1

Question: What about the “color of the colony” value (Edwardsiella tarda; 48 h) of the same substance?
Answer: R

Question: What about the growth diameter (Edwardsiella tarda; 48 h) of the same substance?
Answer: 0.7 mm

Question: And the “intensity of coloration, scale 0 to 4” value (Edwardsiella tarda; 48 h)?
Answer: 3

Question: What about the “color of the colony” value (Proteus mirabilis; 24 h) of the same substance?
Answer: R

Question: And the growth diameter (Proteus mirabilis; 24 h)?
Answer: 1.7 mm

Question: And the “intensity of coloration, scale 0 to 4” value (Proteus mirabilis; 24 h)?
Answer: 0.5

Question: And the “color of the colony” value (Proteus mirabilis; 48 h)?
Answer: R

Question: And the growth diameter (Proteus mirabilis; 48 h)?
Answer: 1.7 mm

Question: What about the “intensity of coloration, scale 0 to 4” value (Proteus mirabilis; 48 h) of the same substance?
Answer: 1.5

Question: What about the growth diameter (Candida krusei; 24 h) of the same substance?
Answer: 0.5 mm

Question: What about the growth diameter (Candida krusei; 48 h) of the same substance?
Answer: 1 mm

Question: And the “color of the colony” value (Serratia marcescens; 24 h)?
Answer: R

Question: What about the growth diameter (Serratia marcescens; 24 h) of the same substance?
Answer: 0.5 mm

Question: What about the “intensity of coloration, scale 0 to 4” value (Serratia marcescens; 24 h) of the same substance?
Answer: 2

Question: What about the “color of the colony” value (Serratia marcescens; 48 h) of the same substance?
Answer: R

Question: And the growth diameter (Serratia marcescens; 48 h)?
Answer: 1 mm

Question: And the “intensity of coloration, scale 0 to 4” value (Serratia marcescens; 48 h)?
Answer: 3

Question: What about the growth diameter (Listeria innocua; 24 h) of the same substance?
Answer: 0.2 mm

Question: What about the growth diameter (Listeria innocua; 48 h) of the same substance?
Answer: 0.3 mm

Question: And the “color of the colony” value (Hafnia alvei; 24 h)?
Answer: R

Question: And the growth diameter (Hafnia alvei; 24 h)?
Answer: 0.5 mm

Question: What about the “intensity of coloration, scale 0 to 4” value (Hafnia alvei; 24 h) of the same substance?
Answer: 0.5

Question: And the “color of the colony” value (Hafnia alvei; 48 h)?
Answer: R

Question: What about the growth diameter (Hafnia alvei; 48 h) of the same substance?
Answer: 0.5 mm

Question: What about the “intensity of coloration, scale 0 to 4” value (Hafnia alvei; 48 h) of the same substance?
Answer: 1.5

Question: And the growth diameter ([1]; 24 h)?
Answer: 0.1 mm

Question: What about the growth diameter ([1]; 48 h) of the same substance?
Answer: 0.1 mm

Question: What about the “color of the colony” value (Serratia liquefaciens; 24 h) of the same substance?
Answer: R

Question: And the growth diameter (Serratia liquefaciens; 24 h)?
Answer: 0.7 mm

Question: What about the “intensity of coloration, scale 0 to 4” value (Serratia liquefaciens; 24 h) of the same substance?
Answer: 3

Question: And the “color of the colony” value (Serratia liquefaciens; 48 h)?
Answer: R

Question: And the growth diameter (Serratia liquefaciens; 48 h)?
Answer: 1.3 mm

Question: And the “intensity of coloration, scale 0 to 4” value (Serratia liquefaciens; 48 h)?
Answer: 3

Question: And the growth diameter (Streptococcus agalactiae; 24 h)?
Answer: 0.1 mm

Question: And the growth diameter (Streptococcus agalactiae; 48 h)?
Answer: 0.2 mm

Question: And the growth diameter (Bacillus subtilis; 24 h)?
Answer: 0.1 mm

Question: And the growth diameter (Bacillus subtilis; 48 h)?
Answer: 0.5 mm

Question: And the growth diameter (Candida albicans; 24 h)?
Answer: 0.3 mm

Question: And the “color of the colony” value (Candida albicans; 48 h)?
Answer: R

Question: What about the growth diameter (Candida albicans; 48 h) of the same substance?
Answer: 0.5 mm

Question: And the “intensity of coloration, scale 0 to 4” value (Candida albicans; 48 h)?
Answer: 2

Question: What about the growth diameter ([2]; 24 h) of the same substance?
Answer: 0 mm

Question: And the growth diameter ([2]; 48 h)?
Answer: 0 mm

Question: And the growth diameter (Enterococcus faecalis; 24 h)?
Answer: 0.3 mm

Question: And the growth diameter (Enterococcus faecalis; 48 h)?
Answer: 0.3 mm

Question: What about the “color of the colony” value (Enterobacter cloacae; 24 h) of the same substance?
Answer: R

Question: And the growth diameter (Enterobacter cloacae; 24 h)?
Answer: 0.7 mm

Question: What about the “intensity of coloration, scale 0 to 4” value (Enterobacter cloacae; 24 h) of the same substance?
Answer: 1.5

Question: And the “color of the colony” value (Enterobacter cloacae; 48 h)?
Answer: R

Question: What about the growth diameter (Enterobacter cloacae; 48 h) of the same substance?
Answer: 0.7 mm

Question: And the “intensity of coloration, scale 0 to 4” value (Enterobacter cloacae; 48 h)?
Answer: 2

Question: And the “color of the colony” value (Escherichia coli; 24 h)?
Answer: R

Question: What about the growth diameter (Escherichia coli; 24 h) of the same substance?
Answer: 1.7 mm

Question: And the “intensity of coloration, scale 0 to 4” value (Escherichia coli; 24 h)?
Answer: 1

Question: And the “color of the colony” value (Escherichia coli; 48 h)?
Answer: R

Question: What about the growth diameter (Escherichia coli; 48 h) of the same substance?
Answer: 1.8 mm

Question: And the “intensity of coloration, scale 0 to 4” value (Escherichia coli; 48 h)?
Answer: 1

Question: What about the growth diameter (Candida glabrata; 24 h) of the same substance?
Answer: 0.1 mm

Question: What about the growth diameter (Candida glabrata; 48 h) of the same substance?
Answer: 0.3 mm

Question: And the growth diameter (Enterococcus faecium; 24 h)?
Answer: 0.2 mm

Question: What about the growth diameter (Enterococcus faecium; 48 h) of the same substance?
Answer: 0.3 mm

Question: And the “color of the colony” value (Salmonella typhimurium; 24 h)?
Answer: R

Question: And the growth diameter (Salmonella typhimurium; 24 h)?
Answer: 1 mm

Question: And the “intensity of coloration, scale 0 to 4” value (Salmonella typhimurium; 24 h)?
Answer: 0.5

Question: And the “color of the colony” value (Salmonella typhimurium; 48 h)?
Answer: R

Question: What about the growth diameter (Salmonella typhimurium; 48 h) of the same substance?
Answer: 1.5 mm

Question: What about the “intensity of coloration, scale 0 to 4” value (Salmonella typhimurium; 48 h) of the same substance?
Answer: 1

Question: What about the “color of the colony” value (Acinetobacter baumanii; 24 h) of the same substance?
Answer: R

Question: What about the growth diameter (Acinetobacter baumanii; 24 h) of the same substance?
Answer: 1.7 mm

Question: And the “intensity of coloration, scale 0 to 4” value (Acinetobacter baumanii; 24 h)?
Answer: 3

Question: What about the “color of the colony” value (Acinetobacter baumanii; 48 h) of the same substance?
Answer: R

Question: What about the growth diameter (Acinetobacter baumanii; 48 h) of the same substance?
Answer: 1.7 mm

Question: And the “intensity of coloration, scale 0 to 4” value (Acinetobacter baumanii; 48 h)?
Answer: 3

Question: And the growth diameter ([3]; 24 h)?
Answer: 0.1 mm

Question: And the growth diameter ([3]; 48 h)?
Answer: 0.3 mm

Question: And the growth diameter (Streptococcus pyogenes; 24 h)?
Answer: 0.1 mm

Question: What about the growth diameter (Streptococcus pyogenes; 48 h) of the same substance?
Answer: 0.2 mm
